Consider four molecules from publication PMC2833169, “Anti-malarial activity of a non-piperidine library of next-generation quinoline methanols” (Malaria Journal, 2010).

Values after ≈ are worked out from the molar mass of the structure shown. Read-outs that look alike come from different tables or passages of the source.

One data set concerns P. falciparum strain W2. In words: labeled hypoxanthine susceptibility assay, P. falciparum W2. The format is cell-based, Plasmodium falciparum. The settings on record: Plasmodium falciparum. As for the experimental part:
(§1) The in vitro activities of quinoline methanols against P. falciparum strains W2, D6, TM91C235, and TM90C2A were evaluated using the traditional labeled hypoxanthine assay of Desjardins et al as modified by Milhous et al. These four P. falciparum strains were selected since they have various levels of resistance to conventional anti-malarials.

For data set [1], the system named is rodent macrophage (RAW) cell line. Briefly: cells. The settings on record: Mus musculus, Macrophage, read-out: Macrophage IC50.
For another data set, the target named is T1, CYP450 2D6 (Homo sapiens, UniProt P10635).
T1 construct: purchased BD Gentest (Franklin Lakes, NJ)
Briefly: CYP450 inhibition kit (drug-drug interaction), 2D6. The format is biochemical. Here is the method: Low IC50s against specific cytochrome P450 isoforms may indicate the potential for a harmful drug interaction to occur in vivo with substrates of that isoform. A lack of metabolic stability in vitro may indicate potential metabolic instability in vivo, and, therefore, a shorter half-life. Drug interaction potential was evaluated in vitro using BD Gentest (Franklin Lakes, NJ) CYP450 inhibition kits as recommended by the manufacturer. Metabolic stability assessments were conducted using in vitro liver microsomes. […] The reaction is started with the addition of 1 U/mL glucose-6-phosphate dehydrogenase G6PD. The mixture is incubated on a shaking platform at 37°C, and aliquots are taken and quenched with the addition of an equal volume of cold acetonitrile at 0, 10, 20, 30, and 60 min. Samples are centrifuged at 3700 rpm for […] at 20°C to remove debris. Sample quantification is carried out by LC/MS, and metabolic half-life is calculated by log plots of the total ion chromatograph area remaining.

The test system of data set [2] is MDR1-transfected MDCK cell monolayers. Briefly: in vitro. As to conditions: dog, MDCK-MDR1, 2 h, 5 μM, pH 7.4. Here is the method: (§2) For this reason, the apparent permeability of selected compounds across MDR1-transfected MDCK cell monolayers was determined. This assay is an in vitro surrogate of the blood-brain barrier.
(§3) Permeability was determined by Absorption Systems (Exton, PA). MDR1-MDCK cell monolayers were grown to confluence on collagen-coated, microporous, polycarbonate membranes in 12-well Costar Transwell plates. […] The permeability assay buffer was Hanks Balanced Salt Solution containing 10 mM HEPES and 15 mM glucose at a pH of 7.4. A known p-glycoprotein inhibitor cyclosporin A (CSA) was also added to the assay buffer at 10 μM. Bovine serum albumin (1%) was added to the receiver well. The dosing solution concentrations of the test compounds were 5.0 μM in the assay buffer. All cell monolayers were first pre-incubated for 30 minutes with assay buffer. After 30 minutes, the buffer was removed, replaced with fresh buffer, and time was recorded as 0. […] Cell monolayers were dosed on the apical side (A-to-B) or basolateral side (B-to-A) and incubated at 37°C with 5% CO2 in a humidified incubator. After 2 hours, aliquots were taken from the receiver chambers. Samples were taken from the donor chamber at 0 and 2 hours. Each determination was performed in duplicate. The lucifer yellow flux was also measured for each monolayer to ensure no damage was inflicted to the cell monolayers during the flux period. All samples were assayed by LC/MS/MS using electrospray ionization.
(§4) Apparent permeability in the apical (A-B direction), PappA-B, and percent recovery are reported. Apparent permeability is a measure of the rate of transport across the cell monolayer. Percent recovery refers to the amount of compound recoverable at the end of the assay. Low recovery may indicate non-specific binding to assay plates, instability or accumulation in the cell pellet.
(§5) The apparent permeability, Papp, and percent recovery were calculated as follows:
(§6) Papp = (dCr/dt) × Vr/(A × C0) (1)
(§7) Percent Recovery = 100 × ((Vr × Cr^final) + (Vd × Cd^final))/(Vd × […]) (2)

Another data set deals with P. falciparum strain D6. Briefly: labeled hypoxanthine susceptibility assay, P. falciparum D6. The format is cell-based, Plasmodium falciparum. The settings on record: for IC90: Plasmodium falciparum. As for the experimental part: as §1
Another data set addresses T2, A1 receptor (Homo sapiens, UniProt P30542).
T2 construct: Caliper Biosciences (contract screen)
T2 sequence (P30542 1-326): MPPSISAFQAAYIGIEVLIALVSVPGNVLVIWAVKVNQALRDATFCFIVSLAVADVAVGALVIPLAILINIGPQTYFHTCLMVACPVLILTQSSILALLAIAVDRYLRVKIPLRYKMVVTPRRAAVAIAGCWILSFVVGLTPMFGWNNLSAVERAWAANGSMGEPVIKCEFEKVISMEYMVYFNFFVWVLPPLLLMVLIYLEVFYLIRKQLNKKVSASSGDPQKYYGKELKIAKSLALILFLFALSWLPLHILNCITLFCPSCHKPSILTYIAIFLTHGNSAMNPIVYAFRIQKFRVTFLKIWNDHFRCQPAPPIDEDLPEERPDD
In words: inhibition of the A1 receptor at 200 nM. The format is binding. As to conditions: duplicate. As for the experimental part: General cytotoxicity was assessed by first determining LC50 's against a rodent macrophage (RAW) cell line using the 3-(4,5-dimethylthiazole-2-yl)-2,5-diphenyltetrazolium bromide (MTT) assay as described in one of our earlier studies. This screen was conducted to identify compounds that may require de-selection due to generalized toxicity. […] In vitro neurocytotoxicity was assessed by determining LC50s against primary mouse neurons using the MTT assay as described previously. Inhibition of the A2A and A1 receptors was determined at 200 nM in duplicate by Caliper Biosciences (Hanover, Maryland).

A short description of data set [3]: in vitro. The settings on record: dog, MDCK-MDR1, pH 7.4. As for the experimental part: as §2, §3, §4, §5, §6, §7
A short description of data set [4]: in vitro. The settings on record: mouse.
The mark [5] stands for this setting: D6, read-out: IC90 Pf D6, P. falciparum D6, mefloquine: historical mean +/- SD (n).
Setting [6] is: D6, read-out: PF D6 IC90, P. falciparum D6.

T1 sequence (P10635 whole entry): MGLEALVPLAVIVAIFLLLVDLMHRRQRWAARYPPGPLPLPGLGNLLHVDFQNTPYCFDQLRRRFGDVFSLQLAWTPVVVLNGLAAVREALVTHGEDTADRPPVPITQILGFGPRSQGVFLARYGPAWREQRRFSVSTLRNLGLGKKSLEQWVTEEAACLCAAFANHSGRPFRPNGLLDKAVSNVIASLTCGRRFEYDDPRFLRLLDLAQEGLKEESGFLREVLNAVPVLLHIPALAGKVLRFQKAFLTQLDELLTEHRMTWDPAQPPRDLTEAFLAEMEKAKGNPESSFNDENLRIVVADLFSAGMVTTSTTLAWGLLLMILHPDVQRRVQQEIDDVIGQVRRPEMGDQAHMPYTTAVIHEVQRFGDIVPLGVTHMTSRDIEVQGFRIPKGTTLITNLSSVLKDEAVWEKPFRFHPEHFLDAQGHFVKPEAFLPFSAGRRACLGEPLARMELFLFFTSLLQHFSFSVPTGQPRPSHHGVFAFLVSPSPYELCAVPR

On to `CNCC(O)c1cc(C(F)(F)F)nc2c(C(F)(F)F)cccc12` (stereo not drawn) [WR308245], for which the concentration for an effect of 90% (IC90) in the data set on P. falciparum strain W2 (W2, read-out: IC90 Pf W2) was 0.017 µg/mL (≈ 0.0503 µM); with P. falciparum strain W2 (W2, read-out: PF W2 IC90), 0.0168 µg/mL (≈ 0.0495 µM); in the data set on P. falciparum strain D6 (setting [5]) it was 0.045 µg/mL (≈ 0.133 µM); in the data set on P. falciparum strain D6 (setting [6]), 0.0452 µg/mL (≈ 0.134 µM). Besides, the results for the IC50 (in data set [1]; against CYP450 2D6) were 40.4 µM and 7.4 µM, respectively. In data set [2], the “% recovery (MDCK-MDR1 permeability assay)” value (“% recovery” below) is recorded as 59%. For the same molecule, in data set [2], the “PappA-B MDCK-MDR1” value is given as 24 10^-6 cm/s. Also, 0.2 µM produced 0% inhibition against A1 receptor.
For `CC(C)NCC(O)c1cc(C(F)(F)F)nc2c(C(F)(F)F)cccc12` (stereo not drawn) [WR308257], the IC90 in the data set with P. falciparum strain W2 (W2, read-out: IC90 Pf W2) is 0.0047 µg/mL (≈ 0.0128 µM); in the data set with P. falciparum strain W2 (W2, read-out: PF W2 IC90), 0.00465 µg/mL (≈ 0.0127 µM); in the data set with P. falciparum strain D6 (setting [5]), 0.023 µg/mL (≈ 0.0628 µM); in the data set with P. falciparum strain D6 (setting [6]) it was 0.0232 µg/mL (≈ 0.0634 µM). Further, the half-maximal inhibitory concentration (IC50) in data set [1] came to 14.2 µM; at CYP450 2D6, 1.9 µM. The “% recovery” value in data set [2] stood at 69%. In the data set “in vitro [3]”, the apical-to-basolateral permeability (Papp A→B) at 2 h, 5 μM worked out at 25 ×10⁻⁶ cm/s. The molecule further showed an inhibition at 0.2 µM at A1 receptor of 79%.
For `CSCCCNCC(O)c1cc(C(F)(F)F)nc2c(C(F)(F)F)cccc12` (stereo not drawn) [WR308278], the IC90 with P. falciparum strain W2 (W2, read-out: IC90 Pf W2) turned out to be 0.0097 µg/mL (≈ 0.0235 µM); in the data set on P. falciparum strain W2 (W2, read-out: PF W2 IC90) it was 0.00969 µg/mL (≈ 0.0235 µM); in the data set on P. falciparum strain D6 (setting [5]), 0.036 µg/mL (≈ 0.0873 µM); with P. falciparum strain D6 (setting [6]), 0.0363 µg/mL (≈ 0.0881 µM). The IC50 in data set [1] came to 20.9 µM; on CYP450 2D6 it was 1.4 µM. Further, the “% recovery” value in data set [2] stood at 54%. Further, the “PappA-B MDCK-MDR1” value in data set [2] is 38 10^-6 cm/s. In addition, the inhibition at 0.2 µM against A1 receptor stood at 9.4%.
In the case of `OC(CNCCNCc1ccccc1)c1cc(C(F)(F)F)nc2c(C(F)(F)F)cccc12` (stereo not drawn) [WR308396], the IC90 stood at 0.0062 µg/mL (≈ 0.0136 µM) in the data set with P. falciparum strain W2 (W2, read-out: IC90 Pf W2); 0.03 µg/mL (≈ 0.0656 µM) in the data set with P. falciparum strain D6 (setting [5]); 0.0293 µg/mL (≈ 0.0639 µM) with P. falciparum strain D6 (setting [6]). Further, the values for the IC50 (in data set [1]; on CYP450 2D6) were 18.1 µM and 0.7 µM, respectively. The CC50 in the data set “in vitro [4]” was found to be 8.28 µg/mL (≈ 18.1 µM). The “PappA-B MDCK-MDR1” value in data set [2] was 8.4 10^-6 cm/s. Also, the “IC90 Pf D6” value in the data set with P. falciparum strain D6 (P. falciparum D6, mefloquine: historical mean +/- SD (n)) was 0.029 µg/mL (≈ 0.0634 µM). Besides, the inhibition at 0.2 µM at A1 receptor came out at 2.9%.
